# Source: PubChem BioAssay AID488890 (Southern Research Specialized Biocontainment Screening …, 2010)
# Results filed as inconclusive are left out. The source made the active and inactive calls. No rule for the calls is given here.
# System: Mycobacterium tuberculosis non-replicating, growth inhibition
# Experiment: growth inhibition of non-replicating M. tuberculosis (AID 488890)
row,SMILES,IC50
1,O=C(c1ccc([N+](=O)[O-])o1)N1CCN(c2nc3ccc(F)cc3s2)CC1,< 0.1 µM
2,Cc1ccc(-n2nnnc2CNC(=O)c2ccc([N+](=O)[O-])o2)cc1C,24.2 µM (inactive)
3,OCC1(CCOc2ccccc2)CCN(Cc2cc(Cl)ccc2O)CC1,24.1 µM (inactive)
4,CC(NC(=O)c1cc([N+](=O)[O-])cc([N+](=O)[O-])c1)c1ccc(-n2ccnc2)cc1 (stereo not drawn),5.42 µM
5,O=C(Nc1ccccc1)c1cc2ccccc2o1,4.57 µM
6,Cc1nc([N+](=O)[O-])c(Br)n1CC(=O)c1ccc(Cl)cc1,5.69 µM
7,Cc1cc(C)c(C(=O)COC(=O)c2ccc([N+](=O)[O-])o2)cc1C,0.93 µM
8,O=C(Nc1sc2c(c1C(=O)O)CCCC2)c1ccc(F)cc1,24.3 µM (inactive)
9,CCOc1ccc(-c2ccc(C=O)o2)c([N+](=O)[O-])c1,19 µM (inactive)
10,O=C(NNC(=O)c1ccccn1)c1cccc([N+](=O)[O-])c1,11 µM (inactive)
11,O=C(Nc1ccc(S(=O)(=O)N2CCOCC2)cc1)c1ccc([N+](=O)[O-])s1,1.59 µM
12,CCOC(=O)C(Nc1ccc2ccccc2c1)C(=O)OCC,7.7 µM
13,CC(C)(C)c1ccc(OCCC(=O)OCC(=O)NC2CCCCC2)cc1,9.3 µM
14,CCCNC(=O)N1CCC(c2ccc3c(c2)OCO3)CC1,4.71 µM
15,CCCn1nnnc1NC(=O)COc1ccc(Br)cc1,4.62 µM
16,COc1ccccc1OCCN1CSC(=S)N(C)C1,8.14 µM
17,COc1ccc(N2C(=O)NC(=O)/C(=C/c3ccc([N+](=O)[O-])s3)C2=O)cc1,16.1 µM (inactive)
18,COc1ccc2c3c(cccc13)OCC2=O,25.9 µM (inactive)
19,Cn1c(O)c(C(=Nc2ccccc2)SCc2ccccc2Cl)c(=O)n(C)c1=O,8.25 µM
20,CCCc1ccc(OCc2ccc(C(=O)N/N=C/c3cccnc3)o2)cc1,8.42 µM
21,Nc1ccc2cc(Br)ccc2c1,0.44 µM
22,O=c1cc(C(F)(F)F)[nH]c2c(C(F)(F)F)cccc12,5.78 µM
23,O=C(O)CCCCCN1C(=O)/C(=C\c2ccncc2)SC1=S,11.2 µM (inactive)
24,O=C(N/N=C/c1cc([N+](=O)[O-])ccc1O)C1CCCCC1,1.97 µM

row,SMILES,IC50
1,CCOC(=O)COc1c(-c2ccc(OC)cc2)oc2ccccc2c1=O,4.43 µM
2,Cc1ccccc1OCC(=O)OCC(=O)c1ccc[nH]1,21.2 µM (inactive)
3,N=c1n(Cc2ccc(Cl)cc2)c2ccccc2n1CC(O)COc1ccccc1 (stereo not drawn),13.5 µM (inactive)
4,O=[N+]([O-])c1ncccc1Oc1nc(-c2cccnc2)nc2ccccc12,0.73 µM
5,CCCCN(CC)CCNC(=O)c1cc2c(-c3ccc(Cl)cc3)nn(C)c2s1,8.57 µM
6,N#C/C(N=Nc1ccccc1O)=N\Nc1ccccc1O,2.67 µM
7,CC(C)[C@H](NC(=O)c1ccc(Br)cc1)C(=O)NC1CCCCC1,1.37 µM
8,CN(CCOCCOc1ccc(F)cc1)Cc1ccccc1,10.9 µM (inactive)
9,O=C1Nc2ccc(Br)cc2/C1=C/C(=O)c1ccc2c(c1)OCO2,10.6 µM (inactive)
10,CC1CCN(C(=O)C2COc3ccccc3O2)CC1 (stereo not drawn),0.23 µM
11,Cc1ccc2oc(=O)c3cc(C(=O)NCCCN4CCCCCC4)sc3c2c1,15.8 µM (inactive)
12,O=C(COc1c(Br)cc(Br)c2cccnc12)N1CCCCC1,9.93 µM
13,O=C(CCc1ccc(Oc2cc([N+](=O)[O-])cc([N+](=O)[O-])c2)cc1)N1CCCCC1,4.85 µM
14,COc1ccccc1CCNC(=O)c1ccc(C)o1,2.96 µM
15,Cc1cccc(OCC(=O)NNC(=O)c2cc3ccccc3oc2=O)c1,6.13 µM
16,Cc1[nH]c2ccccc2c1C(=O)COC(=O)c1ccc([N+](=O)[O-])s1,0.65 µM
17,Clc1ccc(Cl)c(OCCCCNCc2ccccc2)c1,15.1 µM (inactive)
18,O=C(N/N=C/c1ccc[nH]1)c1cccnc1,26.7 µM (inactive)
19,Cc1ccc(-c2nnc(NC(=O)c3ccco3)o2)c(C)c1,6.85 µM
20,O=C(N/N=C/c1cccc2cccnc12)c1ccccc1O,3.16 µM
21,O=C(NCc1ccc(F)cc1)c1ccc(Br)o1,0.51 µM
22,O=C(N/N=C/c1cccc2nccnc12)c1ccncc1,1.13 µM
23,Cc1cc(OCCCCn2ccnc2)cc(C)c1Cl,4.68 µM
24,c1ccc(-c2nnc(SCc3nnc(-c4cccs4)o3)o2)cc1,5.95 µM

row,SMILES,IC50
1,Cc1cc(C(=O)N/N=C/c2ccc([N+](=O)[O-])s2)n[nH]1,3.31 µM
2,CCC(C)n1c(=S)[nH]c2ccccc2c1=O (stereo not drawn),14.8 µM (inactive)
3,CC(C)OC(=O)CCCCCN1C(=O)CSC1=S,1.94 µM
4,CCOC(=O)c1c(NC(=O)C2COc3ccccc3O2)sc2c1CC(C)(C)NC2(C)C (stereo not drawn),18.3 µM (inactive)
5,COc1cc(OC)cc(-c2nc3ccccc3c(=O)o2)c1,2.33 µM
6,CNc1nnc(Sc2ncccc2[N+](=O)[O-])s1,5.8 µM
7,O=C(O)CCCCCN1C(=O)CSC1=S,19.9 µM (inactive)
8,Cc1nc(-c2ccc(C(F)(F)F)cc2)sc1C(=O)NN,23.5 µM (inactive)
9,CCOc1ccc(NC(=O)Cn2sc3nc(C)cc(C)c3c2=O)cc1,5.5 µM
10,O=C(CC(=O)c1cc(Cl)ccc1O)c1ccccc1,2.65 µM
11,CN1CCN(c2ccc(NC(=O)c3ccc(-c4ccc(Cl)cc4)o3)cc2)CC1,5.1 µM
12,CC1CCN(C(=O)c2ccc(-c3ccccc3Cl)o2)CC1,5.32 µM
13,Cc1cc(NCc2ccccn2)n2nc(C)c(-c3ccccc3)c2n1,1.82 µM
14,CC(C)CCCn1c(O)c(/C=C2/C=CC=N2)c(=O)[nH]c1=O,0.27 µM
15,COc1ccccc1/C=C/C=N/NC(=O)c1ccncc1,1.08 µM
16,Cc1nnc(N/N=C/c2ccc(Br)cc2)n1N,1.29 µM
17,O=C(Nc1ccccc1F)c1ccc(Br)o1,13.4 µM (inactive)
18,CCOC(=O)c1ccsc1NC(=O)CCS(=O)(=O)c1ccccc1,33.8 µM (inactive)
19,COC(=O)CCc1nc2c(C#N)c(-c3ccc(Cl)cc3)ccn2n1,24.3 µM (inactive)
20,NC(=O)N=Nc1c2[nH]c3ccccc3nc-2c2ccccc12,9.06 µM
21,O=C(Nc1nnc(-c2ccco2)o1)c1ccc(Cl)s1,11.2 µM (inactive)
22,O=C(Nc1c(F)cc(F)cc1Br)c1cc(-c2ccccc2)on1,6.29 µM
23,CN(C)CCCNc1cc(C(C)(C)C)nc2c(-c3ccccc3)cnn12,18.6 µM (inactive)
24,CCOc1ccc(-c2cc(CCCC(=O)NCCC(C)C)no2)cc1,18.2 µM (inactive)

row,SMILES,IC50
1,O=C(N/N=C\C=C\c1ccco1)c1cncc(Br)c1,34.4 µM (inactive)
2,O=C(N/N=C/c1cccc(F)c1)c1c(O)c2ccccc2[nH]c1=O,3.17 µM
3,C/C(=N\Nc1nc2ccccc2[nH]1)c1cc2ccccc2o1,8.88 µM
4,CC(C)(C)c1cc(CN2CCN(CCO)CC2)cc(C(C)(C)C)c1O,3.78 µM
5,Cc1ccc(CCC(=O)Nc2ccccc2F)s1,26.2 µM (inactive)
6,N#CC1=C(N)Oc2c(ccc3cccnc23)C1c1ccccc1 (stereo not drawn),33.9 µM (inactive)
7,CCOC(=O)CNC(=O)N1c2ccccc2Sc2ccccc21,4.81 µM
8,O=C(N/N=C/c1ccccc1O)c1cccc(C(F)(F)F)c1,< 0.1 µM
9,COc1ccc2c([N+](=O)[O-])c(N3CCCC3)[nH]c2c1,36 µM (inactive)
10,CCn1c(=O)c(C(=O)Nc2ncccc2C)c(O)c2ccccc21,9.94 µM
11,Cc1ccnc(NS(=O)(=O)c2ccc(NC(=O)c3ccc([N+](=O)[O-])s3)cc2)n1,8.3 µM
12,O=C(NCc1ccccc1)c1cc2ccccc2oc1=O,43.8 µM (inactive)
13,Cc1cc(N/N=C/c2ccc(O)cc2O)nc(-n2nc(C)cc2C)n1,0.77 µM
14,O=C(CCN1CCC(c2ccccc2)C1)c1ccccc1 (stereo not drawn),33.1 µM (inactive)
15,COC(=O)COc1ccc2cc(-c3ccc(OC)cc3)c(=O)oc2c1,1.41 µM
16,COc1cccc2cc(C(=O)c3ccc([N+](=O)[O-])cc3)oc12,6.05 µM
17,CCCCN1CCC(O)(c2ccccc2)C(C(=O)c2ccccc2)C1 (stereo not drawn),4.86 µM
18,CCCNC1=C(N(C(C)=O)c2cccc(F)c2)C(=O)c2ccccc2C1=O,5.89 µM
19,Cc1ccc(-n2cc(CNCCn3nc(C)cc3C)c(-c3ccc(F)cc3)n2)cc1,6.05 µM
20,COc1ccc(NC(=O)Nc2ccc(O)c3ccccc23)cc1,3.7 µM
21,COc1ccc(-c2nnn(Cc3ccccc3)n2)cc1,12.4 µM (inactive)
22,COC(=O)c1ccc(CO/N=C/c2ccc(OC)cc2)o1,6.95 µM
23,CCc1ccc(C(=O)NC2CCCCC2)s1,0.94 µM
24,O=C(NC1CC2CCC1C2)C1COc2ccccc2O1 (stereo not drawn),< 0.1 µM

row,SMILES,IC50
1,CC(C)C(=O)Nc1cccc(-c2nc3ccccc3c(=O)o2)c1,3.79 µM
2,Cc1cc(C)c2c(=O)n(CC(=O)Nc3cccc(Cl)c3C)sc2n1,7.18 µM
3,OCC#CCSc1nnc(-c2ccc(Br)cc2)o1,0.33 µM
4,O=C(Oc1cccc([N+](=O)[O-])c1)c1ccc2c(=O)n3c(nc2c1)CCC3,6.82 µM
5,CC1=C(C)/C(=N\OS(=O)(=O)c2ccccc2)C=CC1=O,1.47 µM
6,Nc1nc2ccccc2n1C(=O)c1ccc(F)cc1,13.2 µM (inactive)
7,O=C(COC(=O)C1CC2C=CC1C2)Nc1ccccc1 (stereo not drawn),35.7 µM (inactive)
8,Cc1ccc(-c2nnc(-c3ccccc3)o2)cc1,1.71 µM
9,CSc1ccc(N=Nc2c(C)[nH]n(C)c2=O)cc1,20.6 µM (inactive)
10,O=C(COC(=O)CCc1c[nH]c2ccccc12)NCc1ccc2c(c1)OCO2,9.66 µM
11,O=C(Nc1nnc(C2COc3ccccc3O2)o1)c1ccc(F)cc1 (stereo not drawn),7.16 µM
12,COc1cccc(-c2nnc(NC(=O)c3cccc(F)c3)o2)c1,11.1 µM (inactive)
13,COc1ccc(/C(C)=N/Nc2ncc(Cl)cc2Cl)c(O)c1,4.51 µM
14,COc1cccc(OCC(=O)NNC(=O)C(=O)Nc2cccc(C)c2)c1,6.72 µM
15,Cc1ccc(-c2nnc(-c3cccs3)o2)cc1,2 µM
16,Cc1cc2nc(CSc3ccc(Cl)cc3)cc(=O)n2[nH]1,14.8 µM (inactive)
17,CC(C)COc1ccc(C(=O)CCN2CCCCC2)cc1,9.7 µM
18,Cn1cnc([N+](=O)[O-])c1S(=O)(=O)c1cccc(Cl)c1,4.5 µM
19,O=C(CNC(=O)c1ccc(Br)cc1)c1ccc(Br)cc1,18.3 µM (inactive)
20,CCCCN(C)S(=O)(=O)c1ccc(C(=O)Nc2nnc(-c3ccco3)o2)cc1,23 µM (inactive)
21,O=[N+]([O-])c1ccc(CNc2cccc(Cl)c2)s1,43.7 µM (inactive)
22,CCCCNC(=O)N1CCc2ccccc2C1,5.03 µM
